Assay results taken from the supplement of paper PMC10307832.

Key:
Assay in all cases: relative viability (nuclei count vs DMSO), 5 days (fraction); higher = more cells survive
Trametinib + Crizotinib = compound: CC(=O)Nc1cccc(-n2c(=O)n(C3CC3)c(=O)c3c(Nc4ccc(I)cc4F)n(C)c(=O)c(C)c32)c1 [Trametinib] + C[C@@H](Oc1cc(-c2cnn(C3CCNCC3)c2)cnc1N)c1c(Cl)ccc(F)c1Cl [Crizotinib] (partner 1 µM)
Summary of the method: (§1)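 Values are medians from duplicate plates. Each reflects relative viability, defined as the nuclei count of treated wells over that of vehicle wells. Lung cancer cell lines in 1536-well plates were pin-tool dosed one day after seeding with one drug alone or with a fixed anchor-drug dose plus five library-drug doses (not always all listed) in √10 steps, then fixed, stained and imaged at 4× after 5 days.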

Trametinib + Lapatinib = compound: CC(=O)Nc1cccc(-n2c(=O)n(C3CC3)c(=O)c3c(Nc4ccc(I)cc4F)n(C)c(=O)c(C)c32)c1 [Trametinib] + CS(=O)(=O)CCNCc1ccc(-c2ccc3ncnc(Nc4ccc(OCc5cccc(F)c5)c(Cl)c4)c3c2)o1 [Lapatinib] (partner 2 µM)
Summary of the method: as §1

[1] = compound: CN1C=C(C2=CC=CC=C21)/C=C\3/C4=C(C=CC=N4)NC3=O + CS(=O)(=O)N1CCN(Cc2cc3nc(-c4cccc5[nH]ncc45)nc(N4CCOCC4)c3s2)CC1 [Pictilisib] (partner 1 µM)
Summary of the method: as §1

[2] = compound: CN1C=C(C2=CC=CC=C21)/C=C\3/C4=C(C=CC=N4)NC3=O + Nc1ncn([C@H]2C[C@H](O)[C@@H](CO)O2)c(=O)n1 [Decitabine] (partner 2 µM)
Summary of the method: as §1

| Cell Line | relative viability (Trametinib + Crizotinib; first compound 0.0025 µM) | relative viability (Trametinib + Crizotinib; first compound 0.007906 µM) | relative viability (Trametinib + Crizotinib; first compound 0.025 µM) | relative viability (Trametinib + Crizotinib; first compound 0.07906 µM) | relative viability (Trametinib + Crizotinib; first compound 0.25 µM) | relative viability (Trametinib + Lapatinib; first compound 0.0025 µM) | relative viability (Trametinib + Lapatinib; first compound 0.007906 µM) | relative viability (Trametinib + Lapatinib; first compound 0.025 µM) | relative viability (Trametinib + Lapatinib; first compound 0.07906 µM) | relative viability (Trametinib + Lapatinib; first compound 0.25 µM) | relative viability ([1]; first compound 0.02 µM) | relative viability ([1]; first compound 0.06325 µM) | relative viability ([1]; first compound 0.2 µM) | relative viability ([1]; first compound 0.6325 µM) | relative viability ([1]; first compound 2 µM) | relative viability ([2]; first compound 0.02 µM) | relative viability ([2]; first compound 0.6325 µM) | relative viability ([2]; first compound 2 µM) | relative viability ([2]; first compound 0.06325 µM) | relative viability ([2]; first compound 0.2 µM) |
| --- | --- | --- | --- | --- | --- | --- | --- | --- | --- | --- | --- | --- | --- | --- | --- | --- | --- | --- | --- | --- |
| Calu-6 | 0.737 | 0.557 | 0.398 | 0.168 | 0.107 | 0.962 | 0.779 | 0.566 | 0.237 | 0.165 | 0.841 | 0.776 | 0.9 | 0.936 | 0.897 | – | – | – | – | – |
| SW 900 | – | – | – | – | – | – | – | – | – | – | – | – | – | – | – | 0.366 | 0.433 | 0.483 | – | – |
| NCI-H650 | 0.787 | 0.736 | 0.672 | 0.668 | 0.339 | 0.885 | 1.19 | 0.845 | 0.825 | 0.498 | 0.826 | 0.922 | – | 0.784 | 0.911 | 0.316 | 0.293 | 0.188 | 0.338 | – |
| NCI-H460 | 0.857 | 0.552 | 0.476 | 0.289 | 0.0283 | 0.897 | 0.754 | 0.42 | 0.148 | 0.0413 | 0.508 | 0.324 | 0.285 | 0.292 | 0.335 | 0.487 | 0.445 | 0.483 | 0.44 | 0.414 |
| NCI-H2228 | 0.33 | 0.398 | 0.438 | 0.254 | 0.247 | 0.881 | 0.513 | 0.765 | 0.734 | 0.286 | 0.378 | 0.371 | – | 0.327 | 0.27 | – | – | – | – | – |
| NCI-H2085 | 0.793 | 0.69 | 0.698 | 0.688 | 0.63 | 0.783 | 0.707 | 0.426 | 0.668 | 0.549 | 0.307 | 0.427 | 0.39 | 0.458 | 0.534 | 0.523 | 0.491 | 0.525 | 0.494 | 0.559 |
| HCC-366 | 0.446 | 0.425 | 0.34 | 0.246 | 0.0629 | 0.88 | 0.938 | 0.614 | 0.58 | 0.161 | 0.114 | 0.121 | 0.118 | 0.113 | 0.104 | 0.304 | 0.369 | 0.342 | 0.335 | 0.349 |
| EPLC-272H | 0.825 | 0.672 | 0.538 | 0.599 | 0.377 | 0.911 | 0.56 | 0.493 | 0.609 | 0.125 | 0.294 | 0.285 | – | 0.27 | 0.304 | 0.382 | 0.333 | 0.336 | 0.345 | – |
| 201T | 1.05 | 1.01 | 0.859 | 0.872 | 0.799 | 1.06 | 0.922 | 0.93 | 0.879 | 0.928 | 0.64 | 0.649 | 0.629 | 0.626 | 0.613 | 0.857 | 0.885 | 0.917 | 0.891 | 0.859 |
| NCI-H3122 | 0.238 | 0.228 | 0.221 | 0.199 | 0.209 | 0.995 | 0.737 | 0.699 | 0.584 | 0.501 | 0.597 | 0.541 | 0.5 | 0.563 | 0.632 | 0.407 | 0.496 | 0.507 | 0.445 | 0.38 |
| NCI-H838 | 0.786 | 0.689 | – | 0.572 | 0.411 | 0.846 | 0.933 | – | 0.634 | 0.428 | 0.311 | 0.351 | 0.464 | 0.4 | 0.381 | 0.431 | 0.433 | 0.449 | 0.447 | 0.446 |
| NCI-H1755 | 0.807 | 0.789 | 0.706 | 0.772 | 0.691 | 0.969 | 0.897 | 0.849 | 0.871 | 0.863 | 0.405 | 0.342 | 0.302 | 0.365 | 0.37 | 0.668 | 0.675 | 0.691 | 0.758 | 0.674 |
| LCLC-103H | 0.938 | 1.07 | 0.799 | 0.756 | 0.76 | – | – | – | – | – | 0.721 | 0.672 | 0.553 | 0.53 | 0.584 | 0.724 | 0.696 | 0.732 | 0.732 | 0.684 |
| NCI-H2342 | – | – | – | – | – | – | – | – | – | – | – | – | – | – | – | 0.685 | 0.693 | 0.623 | 0.702 | 0.674 |
| NCI-H522 | – | – | – | – | – | – | – | – | – | – | – | – | – | – | – | 0.598 | 0.637 | 0.695 | 0.644 | 0.716 |
| EBC-1 | 0.196 | 0.181 | 0.187 | 0.159 | 0.162 | 0.189 | 0.199 | 0.189 | 0.225 | 0.213 | 0.242 | 0.256 | 0.283 | 0.287 | 0.309 | – | – | – | – | – |
| ChaGo-K-1 | 1.13 | 1.07 | 1.1 | 1.01 | 0.761 | – | – | – | – | – | 0.607 | 0.62 | – | 0.403 | 0.571 | 0.519 | 0.534 | 0.476 | 0.515 | 0.5 |
| IA-LM | 0.771 | 0.407 | 0.16 | 0.141 | 0.112 | 0.251 | 0.31 | 0.101 | 0.136 | 0.0905 | 0.273 | 0.264 | – | 0.347 | 0.363 | – | – | – | – | – |
| NCI-H1703 | – | 0.495 | 0.66 | 0.727 | 0.423 | – | 1.09 | 0.887 | 0.96 | 0.859 | 0.232 | 0.245 | 0.257 | 0.283 | 0.23 | – | – | – | – | – |
| NCI-H1563 | 0.944 | 0.747 | 0.817 | 0.785 | 0.623 | 0.973 | 0.937 | 0.808 | 0.84 | 0.61 | 0.587 | 0.618 | 0.641 | 0.747 | 0.682 | – | – | – | – | – |
| NCI-H1395 | – | – | – | – | – | 1.05 | 0.869 | 0.834 | 0.907 | 0.406 | 0.605 | 0.581 | – | 0.602 | 0.577 | 0.642 | 0.699 | 0.688 | 0.702 | 0.686 |
